{"source": "ChEMBL document CHEMBL5696441", "about": "(Nat Chem Biol, 2011)", "key": {"[1]": {"system": "Epidermal growth factor receptor (Homo sapiens), P00533 [UNDEFINED MUTATION]", "sequence (P00533 whole entry, looked up, stated change not applied)": "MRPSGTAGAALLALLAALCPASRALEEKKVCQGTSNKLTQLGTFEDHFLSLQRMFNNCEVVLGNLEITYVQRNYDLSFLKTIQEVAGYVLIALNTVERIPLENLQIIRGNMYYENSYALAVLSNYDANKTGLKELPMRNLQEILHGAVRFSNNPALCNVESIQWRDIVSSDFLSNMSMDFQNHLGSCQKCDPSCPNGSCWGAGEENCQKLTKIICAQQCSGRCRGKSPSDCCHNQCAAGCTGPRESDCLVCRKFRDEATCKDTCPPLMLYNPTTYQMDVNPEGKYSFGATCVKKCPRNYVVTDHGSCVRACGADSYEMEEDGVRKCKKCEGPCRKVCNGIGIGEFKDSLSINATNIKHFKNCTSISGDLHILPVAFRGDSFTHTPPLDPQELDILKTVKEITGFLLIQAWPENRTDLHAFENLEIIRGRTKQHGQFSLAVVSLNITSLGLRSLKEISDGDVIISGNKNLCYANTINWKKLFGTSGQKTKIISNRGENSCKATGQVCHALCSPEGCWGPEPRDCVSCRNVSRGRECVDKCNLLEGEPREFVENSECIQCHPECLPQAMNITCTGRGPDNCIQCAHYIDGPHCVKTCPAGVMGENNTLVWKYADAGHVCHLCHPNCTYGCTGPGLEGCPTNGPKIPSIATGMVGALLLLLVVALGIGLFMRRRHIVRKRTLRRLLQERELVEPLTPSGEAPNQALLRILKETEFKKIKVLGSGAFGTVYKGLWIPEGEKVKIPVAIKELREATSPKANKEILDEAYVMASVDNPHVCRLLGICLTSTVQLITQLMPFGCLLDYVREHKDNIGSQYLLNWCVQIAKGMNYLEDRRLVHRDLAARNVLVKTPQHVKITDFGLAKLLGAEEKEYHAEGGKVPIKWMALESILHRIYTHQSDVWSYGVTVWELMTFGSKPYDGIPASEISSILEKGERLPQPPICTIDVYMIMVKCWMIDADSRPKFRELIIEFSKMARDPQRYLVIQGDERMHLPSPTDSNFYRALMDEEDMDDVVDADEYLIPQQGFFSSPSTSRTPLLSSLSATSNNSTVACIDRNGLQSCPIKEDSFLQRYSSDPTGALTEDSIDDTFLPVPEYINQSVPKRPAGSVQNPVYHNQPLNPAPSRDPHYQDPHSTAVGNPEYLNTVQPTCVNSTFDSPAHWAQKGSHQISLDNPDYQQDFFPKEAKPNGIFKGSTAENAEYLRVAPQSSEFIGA", "test": "Inhibition of EGFR L747-E749del/A750P mutant (unknown origin) assessed as remaining activity at 1 uM by Kinome scan method relative to control"}, "[2]": {"system": "Receptor-type tyrosine-protein kinase FLT3 (Homo sapiens), P36888 [N841I]", "test": "Inhibition of FLT3 N841I mutant (unknown origin) assessed as remaining activity at 1 uM by Kinome scan method relative to control"}}}
{"smiles": "O=C1c2ccc(Nc3ccc(F)cc3F)cc2CCc2ccc(OC[C@H](O)CO)cc21", "note": "[Skepinone-L]", "values": [{"measurement": "Activity", "setting": "[1]", "result": 82, "unit": "%"}, {"measurement": "Activity", "setting": "[2]", "result": 96, "unit": "%"}]}
